# Laboratory results: patent US7090853B2, “Noscapine derivatives as adjuvant compositions and methods of use thereof” (Emory University, priority 1999, dated 2006)
# Marks after values point to notes of the source that are not given here.
# Assays:
# HL-60 cells = assay: Apoptosis of HL-60 cells, DAPI staining of nuclear chromatin; type: cell-based; settings: for Apoptic Cell Percentage: 24 hours
# Description: Morphological changes in the nuclear chromatin of HL-60 cells undergoing apoptosis were detected by staining with 4′,6-diamidino-2-phenylindole (DAPI). In brief, 0.5×10^6 to 3×10^6 cells were fixed with 4% glutaraledebyde, 0.2% Triton x-100, in PBS and incubated at room temperature for 10 min., then centrifuged at 1000×g for 10 min., resuspended in 20 μl 0.1% DAPI ethanol. Following 15 min, incubation at room temperature, at 10 μl aliquot was placed on a glass slide, and 400 cells per slide were scored for the incidence of apoptotic chromatin changes with a fluorescence microscope.
# lymphocyte cells = assay: Apoptosis: oligonucleosomal DNA fragmentation, DAPI staining and nick end labeling; type: cell-based; settings: 20 μM Noscapine, 0 to 24 hr
# Description: Oligonucleosomal fragmentation of genomic DNA was determined according to Walton, M. I. et. al., Cancer. Res. 53, 1853 (1993). An aliquot of 3.3×10^6 cells in 10 ml medium was incubated with 20 μM Noscapine ([…] DMSO solution) for different time periods ranging from 0 to 24 hr. At the end of incubation, cells were pelleted and washed twice with ice cold PBS, and lysed in 250 μl 1% (v/v) NP 40 detergent containing 0.5 mg/ml proteinase K in PBS solution on ice for 60 min. Samples were centrifuged, and the supernatants were removed and incubated with 5 μl 10 mg/ml RNase A at 37° C. for 40 min. An aliquot of 1 ml anhydrous ethanol was added, tubes were placed at −20° C. for 20 min., then centrifuged to pellet DNA. After the samples were dry, the same amount of DNA (10 μg) was electrophoresed at 80V for 3 hr. through a 2% agarose gel containing ethidium bromide in TAB buffer. DNA bands were visualized under […]. […]
# Morphological changes in the nuclear chromatin of cells undergoing apoptosis were detected by staining with 4′,6-diamidino-2-phenylindole (DAPI). […] Following 15 min. incubation at room temperature, a 10 μl aliquot was placed on a glass slide, and 400 cells per slide were scored for the incidence of apoptotic chromatin changes with a fluorescence microscope. […] After the slides were rinsed with PBS for another 3 times, coverslips were mounted and analyzed with a light microscope.
# E.G7-OVA cells = assay: Inhibition of E.G7-OVA tumor growth, i.p. or i.g. dosing; type: in vivo, C57BL/6 mice
# Description: C57BL/6 mice were injected subcutaneously in the right flank with 2×10^6 E.G7-OVA cells. Three days later, mice were injected intraperitoneally, every day for three weeks, either with 200 μl saline (n=10), or with 3 mg noscapine dissolved in 200 μl saline (n=10). Third group of mice (n=10) was fed 3 mg noscapine via intragastric (i.g.) intubation using a 1 ml syringe fitted with a 20 gauge stainless steel ball point needle. After three weeks, all mice were sacrificed by cervical dislocation. Tumors were removed and weighed. Tumor weights were individually plotted and comparisons between control and treatment groups were analyzed by the Student's t test.
# OVA = assay: OVA-specific immune responses of noscapine-treated tumor survivors after OVA in CFA; type: in vivo, B6 mice; settings: for IFNγ / cytokine production by lymph node CD4+ T cells / OVA-specific antibody responses: tumor survivors vs control mice, ELISA
# Description: (FIG. 2A) antibody responses were measured by ELISA with OVA coated microtiter plates,
# (FIG. 2B) IFNγ production by lymphnode cells was measured by ELlSA by comparison with recombinant IFNγ and
# (FIG. 2C) CTL responses were measured using ^51Cr labeled target cells.
# Untreated, control B6 mice and noscapine treated mice whose tumors regressed, were injected with OVA in CFA to test whether the tumor had induced tolerance to OVA. […] Moreover, the OVA-specific CTL response of mice that recovered from the tumor was enhanced by 10- to 30-fold compared to the response of non-tumor bearing controls (FIG. 2C) (14).
smiles,measurement,setting,value
COc1ccc2c(c1OC)C(=O)O[C@@H]2[C@H]1c2c(cc3c(c2OC)OCO3)CCN1C [Noscapine],Apoptic Cell Percentage,"HL-60 cells; 20 μM in DMSO, two trials, result for each trial shown",30.17† %
same,Apoptic Cell Percentage,HL-60 cells; 50 μM in DMSO,27%
same,Initiation of apoptosis,HL-60 cells; DAPI staining,initiate apoptosis
same,"DNA degradation (gel electrophoresis of fragmented genomic DNA, staining)",lymphocyte cells,progressive DNA degradation with increasing time of noscapine treatment
same,tumor weight,"E.G7-OVA cells; 3 mg noscapine i.p. or i.g. every day for three weeks, vs saline",significantly reduced tumor weight
same,tumor cell growth and apoptosis of E.G7-OVA in vivo,E.G7-OVA cells; given parenterally or by gastric gavage,arrested tumor cell growth and induced apoptosis
same,CTL responses after immunization with OVA in CFA,"OVA; tumor survivors treated with Noscapine vs control mice, 51Cr labeled target cells",enhanced
same,IFNγ / cytokine production by lymph node CD4+ T cells,OVA,indistinguishable from control mice
same,OVA-specific antibody responses,OVA,indistinguishable from control mice
same,IFNγ / cytokine production by lymph node CD4+ T cells,OVA; listed as noscapine,identical
same,OVA-specific antibody responses,OVA; listed as noscapine,identical
